Measured values reported in patent US11230526B1, “Cylcoalkenyl derivatives useful as agonists of the GPR120 and/or GPR40 receptors” (Janssen Pharmaceutica NV, priority 2018, dated 2022).

Legend:
Format in all cases: cell-based
Human GPR120 short form [1] = molecular target: T1, Human GPR120 short form (Homo sapiens, UniProt Q5NUL3); assay: Human GPR120 calcium flux assay, Procedure Calcium B (4200 cells/well)
T1 construct: expressed in transfected cells
T1 sequence (Q5NUL3 1-361): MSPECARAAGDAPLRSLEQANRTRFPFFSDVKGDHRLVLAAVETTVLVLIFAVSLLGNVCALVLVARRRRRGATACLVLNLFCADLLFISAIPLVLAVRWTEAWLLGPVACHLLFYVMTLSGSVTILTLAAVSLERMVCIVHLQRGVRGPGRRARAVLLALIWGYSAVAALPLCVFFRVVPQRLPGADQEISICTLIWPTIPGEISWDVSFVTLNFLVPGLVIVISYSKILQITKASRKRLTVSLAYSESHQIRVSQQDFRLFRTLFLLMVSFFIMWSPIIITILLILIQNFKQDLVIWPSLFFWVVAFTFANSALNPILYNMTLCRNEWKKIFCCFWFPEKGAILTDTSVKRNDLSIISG
In short: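 Agonist EC50 came from a four-parameter fit of RFU (Fmax−Fmin) read over 300 s on FLIPR. Cells were HEK293 stably transfected with human GPR120 (NM_001195755.1) at 4200 per well, serum-starved 1 h and loaded with Fluo-4 NW dye with probenecid before ligand addition.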

Human GPR120 short form [2] = molecular target: T1, Human GPR120 short form; assay: Human GPR120 calcium flux assay, Procedure Calcium A (2500 cells/well)
Text: Human GPR120 in Calcium Flux Assay
This in vitro assay serves to assess test compound agonist activity against the short splice variant (SVS with Accession number NM_001195755.1 confirmed by sequencing data) of the GPR120 receptor. The Human Short splice variant #2 (NM_001195755.1) is missing an in-frame coding exon compared to variant 1 (the Human Long splice variant NM_181745.3), resulting in a shorter isoform (GPR120-S) lacking a 16 aa protein segment compared to isoform GPR120-L. The assay platform utilizes HEK-293 cells stably transfected to express the Human GPR120 short form. These cells are first loaded with the Ca^+2 sensitive dye, Fluo-4 NW. Upon stimulation, intracellular released Ca^+2 can bind to the dye and alter its fluorescence intensity. This increase in fluorescence signal, and thus the flux in intracellular [Ca^2+], is detected and quantitated by fluorescence imaging using a FLIPR reader. The effect of the agonist is measured as a function of concentration and used to calculate an EC50 based upon a response curve.
In this procedure 2500 cells/well were employed.
A Human GPR120 clone (Genbank accession number NM_001195755.1) was placed into the pcDNA3.1 mammalian expression vector carrying the neomycin resistance gene. A stable mammalian cell was generated by placing the above clone into a HEK293 background. Clonal cells responding to long chain fatty acids had expression levels of GPR120 confirmed by RT-qPCR. Human HEK-GPR120 cells were cultured in Dulbecco's Modified Eagle's Medium (DMEM)/F12 medium supplemented with 10% fetal bovine serum (FBS), 1% L-Glutamine and 1% penicillin/streptomycin and 0.5 mg/ml G-418. Cells were split 2 times a week to keep the cells in the log-phase growth.
In preparation for the assay, HEK cells stably transfected with Human GPR120 (2.5K cells per well in 25 uL growth medium) were seeded into 384-well plates and then incubated overnight (37° C., 5% CO2). The next day, the media was changed to 20 μL assay buffer and the cell starved for 1 h at 37° C. The dye loading solution (2× dye) was prepared using 10 mL assay buffer, 100 μL of 250 mM probenecid, 1 bottle of Component A, and 20 μl of dye in DMSO. Twenty μL of the 2× dye loading buffer was then added to each well. The plates were incubated at 37° C. for 30 min, then at room temperature for an additional 15 minutes, before performing the assay on FLIPR.
The assay was performed on a FLIPR plate reader using the following parameters. Baseline was read for 10 seconds at 1 sec intervals. The program was set to transfer 10 μL of ligand from compound plate to cell plate after baseline reading. Aspiration was executed at: 10 μL/sec speed, 4.6 μL height, Dispensing was executed at: 30 μL/sec speed, 45 μL height. After compound addition, each well was read for 300 sec, with measurements collected at 1 sec intervals.
The kinetic data from the FLIPR was based upon a 5 minute window for data collection. The fluorescence of each sample well was used for individual calculations of a normalized RFU value, which was defined as maximum response minus the minimum response. The normalized fluorescence reading (RFU) was calculated as follows: RFU=Fmax−Fmin
The Fitting Equation was: Y=Bottom+(Top-Bottom)/(1+10^((Log EC50−X)*HillSlope)), where X is the log of the concentration and Y is the response.

human GPR40 = molecular target: T2, human GPR40 (Homo sapiens, UniProt O14842); assay: GPR40 calcium flux assay, human GPR40; conditions: HEK293 cells stably expressing GPR40; table does not say human or rat
T2 construct: expressed in transfected cells
T2 sequence (O14842 whole entry): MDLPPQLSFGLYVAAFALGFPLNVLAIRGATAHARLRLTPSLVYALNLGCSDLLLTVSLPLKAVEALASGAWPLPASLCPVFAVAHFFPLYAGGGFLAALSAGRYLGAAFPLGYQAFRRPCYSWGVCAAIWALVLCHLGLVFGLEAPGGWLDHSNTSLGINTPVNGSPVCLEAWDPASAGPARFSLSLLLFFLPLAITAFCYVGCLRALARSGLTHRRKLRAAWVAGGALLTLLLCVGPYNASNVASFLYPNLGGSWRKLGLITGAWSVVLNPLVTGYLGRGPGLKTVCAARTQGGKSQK
In short: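 Cells preincubated 1 h at 37° C. in HBSS, 20 mM HEPES, 0.1% BSA, then Fluo 8 calcium dye 30 min at 37° C. and 15 min at room temperature.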

SMILES | EC50 (Human GPR120 short form [1]) [nM] | EC50 (Human GPR120 short form [2]) [nM] | EC50 (human GPR40) [nM]
O=C(O)CCc1ccc(OCC2=C(c3ccccc3)CCC2)cc1 [Compound 19, 3-(4-((2-phenylcyclopent-1-en-1-yl)methoxy)phenyl)Propanoic Acid] | 603 | 1930 | > 5000
COc1ccc(C2=C(COc3ccc(CCC(=O)O)c(C)c3C)CCC2)cc1 [Compound 21, 3-(4-((2-(4-methoxyphenyl)cyclopent-1-en-1-yl)methoxy)-2,3-dimethylphenyl)Propanoic Acid] |  | > 20000 | > 5000
Cc1c(CCC(=O)O)ccc(OCC2=C(c3ccsc3)CCC2)c1C [Compound 22, 3-(2,3-dimethyl-4-((2-(thiophen-3-yl)cyclopent-1-en-1-yl)methoxy)phenyl)Propanoic Acid] |  | > 20000 | > 5000
O=C(O)CCc1ccc(OCC2=C(c3ccc(Cl)cc3)CCC2O)c(F)c1F (stereo not drawn) [Compound 45] |  | > 20000 | > 5000
Cc1c(CCC(=O)O)ccc(OCC2=C(c3ccc(Cl)cc3)CCC2(O)C(F)(F)F)c1C (stereo not drawn) [Compound 69, 3-[4-[[2-(4-chlorophenyl)-5-hydroxy-5-(trifluoromethyl)cyclopenten-1-yl]methoxy]-2,3-dimethyl-phenyl]Propanoic Acid] | 2460 | > 5000 | > 5000
Cc1c(CCC(=O)O)ccc(OCC2=C(c3ccc(S(C)(=O)=O)cc3)CCC2)c1C [Compound 74, 3-[2,3-dimethyl-4-[[2-(4-methylsulfonylphenyl)cyclopenten-1-yl]methoxy]phenyl]Propanoic Acid] |  | > 20000 | > 10000
Cc1ccc(C2=C(COc3ccc(CCC(=O)O)c(F)c3F)CCC2)cc1[N+](=O)[O-] [Compound 92, 3-(2,3-difluoro-4-((2-(4-methyl-3-nitrophenyl)cyclopent-1-en-1-yl)methoxy)phenyl)Propanoic Acid] | 373 | 1260 | > 5000
Cc1c(CCC(=O)O)ccc(OCC2=C(c3cc(Cl)cc(Cl)c3)CCC2)c1C [Compound 112, 3-[4-[[2-(3,5-dichlorophenyl)cyclopenten-1-yl]methoxy]-2,3-dimethyl-phenyl]Propanoic Acid′] | 3070 | 2460 | > 5000
COc1cc(C2=C(COc3ccc(CCC(=O)O)c(C)c3C)CCC2)ccc1C [Compound 113, 3-(4-((2-(3-methoxy-4-methylphenyl)cyclopent-1-en-1-yl)methoxy)-2,3-dimethylphenyl)Propanoic Acid] |  | > 5000 | > 5000
Cc1c(CCC(=O)O)ccc(OCC2=C(c3cccc(N(C)C)c3)CCC2)c1C [Compound 114, 3-[4-[[2-[3-(dimethylamino)phenyl]cyclopenten-1-yl]methoxy]-2,3-dimethyl-phenyl]Propanoic Acid] |  | > 5000 | > 5000
Cc1ccc(C2=C(COc3ccc(CCC(=O)O)c(C)c3C)CCC2)cc1[N+](=O)[O-] [Compound 115, 3-(2,3-dimethyl-4-((2-(4-methyl-3-nitrophenyl)cyclopent-1-en-1-yl)methoxy)phenyl)Propanoic Acid] | 852 | 1120 | > 5000
Cc1cc(OCC2=C(c3ccc(Cl)cc3)CCC2)cc(C)c1CCC(=O)O [Compound 119, 3-(4-((2-(4-chlorophenyl)cyclopent-1-en-1-yl)methoxy)-2,6-dimethylphenyl)Propanoic Acid] | 327 | 895 | > 5000
Cc1c(CCC(=O)O)ccc(OCC2=C(c3ccc([S+](C)[O-])cc3)CCC2)c1C (stereo not drawn) [Compound 120, 3-[2,3-dimethyl-4-[[2-(4-methylsulfinylphenyl)cyclopenten-1-yl]methoxy]phenyl]Propanoic Acid] |  | > 5000 | 
Cc1c(CCCC(=O)O)ccc(OCC2=C(c3ccc(Cl)cc3)CCC2)c1C [Compound 127, 4-[4-[[2-(4-chlorophenyl)cyclopenten-1-yl]methoxy]-2,3-dimethyl-phenyl]Butanoic Acid] | 668 | 2780 | > 5000
Cc1c(CCC(=O)O)ccc(OCC2=C(c3ccncc3)CCC2)c1C [Compound 139, 3-[2,3-dimethyl-4-[[2-(4-pyridyl)cyclopenten-1-yl]methoxy]phenyl]Propanoic Acid] | 2470 | 2450 | 
CCCc1ccc(C2=C(COc3ccc(CCC(=O)O)c(C)c3C)CCC2)cc1 [Compound 140, 3-[2,3-dimethyl-4-[[2-(4-propylphenyl)cyclopenten-1-yl]methoxy]phenyl]Propanoic Acid] |  | > 5000 | > 5000
CCOc1ccc(C2=C(COc3ccc(CCC(=O)O)c(C)c3C)CCC2)cc1 [Compound 151, 3-[4-[[2-(4-ethoxyphenyl)cyclopenten-1-yl]methoxy]-2,3-dimethyl-phenyl]Propanoic Acid] |  | > 5000 | > 5000
CCOc1ccc(C2=C(COc3ccc(CCC(=O)O)c(C)c3C)CCCC2)cc1 [Compound 461, 3-[4-[[2-(4-ethoxyphenyl)cyclohexen-1-yl]methoxy]-2,3-dimethyl-phenyl]Propanoic Acid] | 1360 | 2260 | 
Cc1c(CCC(=O)O)ccc(OCC2=C(c3ccccc3Cl)CCCC2)c1C [Compound 464, 3-[4-[[2-(2-chlorophenyl)cyclohexen-1-yl]methoxy]-2,3-dimethyl-phenyl]Propanoic Acid] | 1250 | 1340 | 
Cc1c(CCC(=O)O)ccc(OCC2=C(c3ccc(OC(F)(F)F)cc3)CCCC2)c1C [Compound 466, 3-[2,3-dimethyl-4-[[2-[4-(trifluoromethoxy)phenyl]cyclohexen-1-yl]methoxy]phenyl]Propanoic Acid] | 1450 | 4440 | 
CC(=O)Nc1ccc(C2=C(COc3ccc(CCC(=O)O)c(C)c3C)CCCC2)cc1 [Compound 495, 3-[4-[[2-(4-acetamidophenyl)cyclohexen-1-yl]methoxy]-2,3-dimethyl-phenyl]Propanoic Acid] |  | > 5000 | > 5000
Cc1c(CCC(=O)O)ccc(OCC2=C(c3ccc([S+](C)[O-])cc3)CCCC2)c1C (stereo not drawn) [Compound 507, 3-[2,3-dimethyl-4-[[2-(4-methylsulfinylphenyl)cyclohexen-1-yl]methoxy]phenyl]Propanoic Acid] |  | > 5000 | > 10000
Cc1c(CCC(=O)O)ccc(OCC2=C(c3ccc(S(C)(=O)=O)cc3)CCCC2)c1C [Compound 515, 3-[2,3-dimethyl-4-[[2-(4-methylsulfonylphenyl)cyclohexen-1-yl]methoxy]phenyl]Propanoic Acid] |  | > 5000 | > 5000
O=C(O)CCc1ccc(OCC2=C(c3ccc(Cl)cc3)CCCC2)cc1 [Compound 517, 3-[4-[[2-(4-chlorophenyl)cyclohexen-1-yl]methoxy]phenyl]Propanoic Acid] |  | > 5000 | > 5000
